Kd data for ten compounds are collected here from ChEMBL document CHEMBL3991601, “The target landscape of clinical kinase drugs” (Science, 2017).

Experiment [1] has as its target T1, MAP/microtubule affinity-regulating kinase 4 (Homo sapiens, UniProt Q96L34).
T1 sequence (Q96L34 whole entry): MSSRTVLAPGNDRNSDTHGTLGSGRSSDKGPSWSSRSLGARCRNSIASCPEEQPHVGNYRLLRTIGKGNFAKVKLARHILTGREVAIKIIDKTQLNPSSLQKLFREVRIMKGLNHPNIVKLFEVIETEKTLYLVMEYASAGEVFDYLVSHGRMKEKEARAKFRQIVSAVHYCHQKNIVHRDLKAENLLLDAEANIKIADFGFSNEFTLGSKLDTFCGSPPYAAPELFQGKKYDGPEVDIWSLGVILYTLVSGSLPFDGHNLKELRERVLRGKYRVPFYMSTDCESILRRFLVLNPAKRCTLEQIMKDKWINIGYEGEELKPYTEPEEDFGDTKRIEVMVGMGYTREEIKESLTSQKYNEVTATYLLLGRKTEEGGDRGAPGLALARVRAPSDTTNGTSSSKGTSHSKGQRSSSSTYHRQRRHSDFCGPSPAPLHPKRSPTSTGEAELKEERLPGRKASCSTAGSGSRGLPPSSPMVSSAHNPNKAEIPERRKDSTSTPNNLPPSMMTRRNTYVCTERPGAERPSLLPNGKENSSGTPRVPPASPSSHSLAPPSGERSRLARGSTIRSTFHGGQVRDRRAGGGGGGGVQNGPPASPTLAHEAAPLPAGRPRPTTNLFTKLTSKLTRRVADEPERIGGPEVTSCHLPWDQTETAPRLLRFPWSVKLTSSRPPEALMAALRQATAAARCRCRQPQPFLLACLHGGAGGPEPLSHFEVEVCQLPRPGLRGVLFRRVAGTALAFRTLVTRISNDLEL

For a further experiment, the target named is Activin receptor type-2B (Homo sapiens, UniProt Q13705).
Sequence of Activin receptor type-2B (Q13705 whole entry): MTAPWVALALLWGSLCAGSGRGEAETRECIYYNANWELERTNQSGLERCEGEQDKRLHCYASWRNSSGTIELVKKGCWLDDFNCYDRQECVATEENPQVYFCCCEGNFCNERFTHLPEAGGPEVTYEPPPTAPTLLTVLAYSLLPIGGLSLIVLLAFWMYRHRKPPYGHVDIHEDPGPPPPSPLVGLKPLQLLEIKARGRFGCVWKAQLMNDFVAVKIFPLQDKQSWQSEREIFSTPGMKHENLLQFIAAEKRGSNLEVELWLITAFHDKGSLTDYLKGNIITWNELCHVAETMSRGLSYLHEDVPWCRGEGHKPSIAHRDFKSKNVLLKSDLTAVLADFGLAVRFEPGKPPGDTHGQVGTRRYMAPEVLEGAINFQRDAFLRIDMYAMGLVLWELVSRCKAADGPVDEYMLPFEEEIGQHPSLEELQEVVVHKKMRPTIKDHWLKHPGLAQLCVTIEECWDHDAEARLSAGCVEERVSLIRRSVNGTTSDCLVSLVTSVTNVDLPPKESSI
Experiment [2] concerns the target Serine/threonine-protein kinase pim-1 (Homo sapiens, UniProt P11309).
Experiment [3] concerns the target Tyrosine-protein kinase JAK1 (Homo sapiens, UniProt P23458).
In experiment [4] the target is Cyclin-dependent kinase 1 (Homo sapiens, UniProt P06493).
Sequence of Cyclin-dependent kinase 1 (P06493 whole entry): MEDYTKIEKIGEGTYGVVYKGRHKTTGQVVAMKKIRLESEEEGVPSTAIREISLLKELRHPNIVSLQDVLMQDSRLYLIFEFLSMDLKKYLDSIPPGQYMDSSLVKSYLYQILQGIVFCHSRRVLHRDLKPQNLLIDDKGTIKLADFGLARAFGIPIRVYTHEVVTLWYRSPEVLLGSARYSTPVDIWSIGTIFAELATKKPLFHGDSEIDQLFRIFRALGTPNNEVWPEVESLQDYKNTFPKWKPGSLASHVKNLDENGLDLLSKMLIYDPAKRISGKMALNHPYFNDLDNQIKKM
Experiment [5] addresses Calcium/calmodulin-dependent protein kinase kinase 2 (Homo sapiens, UniProt Q96RR4).
The target in experiment [6] is T2, Mitogen-activated protein kinase 15 (Homo sapiens, UniProt Q8TD08).
T2 sequence (Q8TD08 whole entry): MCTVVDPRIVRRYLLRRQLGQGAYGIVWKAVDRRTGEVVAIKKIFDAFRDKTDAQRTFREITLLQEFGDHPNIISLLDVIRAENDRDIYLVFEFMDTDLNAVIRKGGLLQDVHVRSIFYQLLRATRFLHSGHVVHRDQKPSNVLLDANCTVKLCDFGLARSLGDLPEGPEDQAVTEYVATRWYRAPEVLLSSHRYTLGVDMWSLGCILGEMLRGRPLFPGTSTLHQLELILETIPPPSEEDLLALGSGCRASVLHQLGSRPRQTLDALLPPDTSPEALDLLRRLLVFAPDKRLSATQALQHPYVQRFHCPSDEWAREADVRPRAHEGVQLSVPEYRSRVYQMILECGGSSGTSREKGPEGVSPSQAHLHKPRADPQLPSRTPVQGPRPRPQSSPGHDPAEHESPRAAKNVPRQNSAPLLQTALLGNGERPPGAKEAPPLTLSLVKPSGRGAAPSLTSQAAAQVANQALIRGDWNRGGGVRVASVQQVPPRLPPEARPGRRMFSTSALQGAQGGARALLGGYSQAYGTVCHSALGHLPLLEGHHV

The target of experiment [7] is Ribosomal protein S6 kinase alpha-5 (Homo sapiens, UniProt O75582).
Sequence of Ribosomal protein S6 kinase alpha-5 (O75582 whole entry): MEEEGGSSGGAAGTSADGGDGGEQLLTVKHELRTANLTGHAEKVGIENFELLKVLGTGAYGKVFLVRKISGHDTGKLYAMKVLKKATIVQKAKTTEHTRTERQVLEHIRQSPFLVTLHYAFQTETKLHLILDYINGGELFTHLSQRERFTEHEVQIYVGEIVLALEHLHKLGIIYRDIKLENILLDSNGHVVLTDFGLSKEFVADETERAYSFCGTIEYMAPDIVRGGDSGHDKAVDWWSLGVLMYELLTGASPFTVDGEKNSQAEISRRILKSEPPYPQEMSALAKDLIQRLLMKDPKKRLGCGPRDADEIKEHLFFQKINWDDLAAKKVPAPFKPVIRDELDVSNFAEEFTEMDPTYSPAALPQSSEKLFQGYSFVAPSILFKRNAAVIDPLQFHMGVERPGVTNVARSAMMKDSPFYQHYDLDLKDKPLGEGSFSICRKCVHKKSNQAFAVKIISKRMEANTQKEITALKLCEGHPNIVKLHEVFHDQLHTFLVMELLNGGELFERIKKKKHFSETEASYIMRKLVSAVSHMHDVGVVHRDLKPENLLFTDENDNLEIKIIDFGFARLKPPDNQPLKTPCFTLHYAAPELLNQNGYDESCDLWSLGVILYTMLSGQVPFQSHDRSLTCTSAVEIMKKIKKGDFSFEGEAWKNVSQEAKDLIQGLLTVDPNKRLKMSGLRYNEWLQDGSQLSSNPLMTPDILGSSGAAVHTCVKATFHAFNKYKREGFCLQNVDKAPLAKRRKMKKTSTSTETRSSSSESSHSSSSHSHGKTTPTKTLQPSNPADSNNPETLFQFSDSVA
Experiment [8] has as its target Tyrosine-protein kinase HCK (Homo sapiens, UniProt P08631).
For experiment [9], the target named is Epithelial discoidin domain-containing receptor 1 (Homo sapiens, UniProt Q08345).
Sequence of Epithelial discoidin domain-containing receptor 1 (Q08345 whole entry, the tested form may be a part): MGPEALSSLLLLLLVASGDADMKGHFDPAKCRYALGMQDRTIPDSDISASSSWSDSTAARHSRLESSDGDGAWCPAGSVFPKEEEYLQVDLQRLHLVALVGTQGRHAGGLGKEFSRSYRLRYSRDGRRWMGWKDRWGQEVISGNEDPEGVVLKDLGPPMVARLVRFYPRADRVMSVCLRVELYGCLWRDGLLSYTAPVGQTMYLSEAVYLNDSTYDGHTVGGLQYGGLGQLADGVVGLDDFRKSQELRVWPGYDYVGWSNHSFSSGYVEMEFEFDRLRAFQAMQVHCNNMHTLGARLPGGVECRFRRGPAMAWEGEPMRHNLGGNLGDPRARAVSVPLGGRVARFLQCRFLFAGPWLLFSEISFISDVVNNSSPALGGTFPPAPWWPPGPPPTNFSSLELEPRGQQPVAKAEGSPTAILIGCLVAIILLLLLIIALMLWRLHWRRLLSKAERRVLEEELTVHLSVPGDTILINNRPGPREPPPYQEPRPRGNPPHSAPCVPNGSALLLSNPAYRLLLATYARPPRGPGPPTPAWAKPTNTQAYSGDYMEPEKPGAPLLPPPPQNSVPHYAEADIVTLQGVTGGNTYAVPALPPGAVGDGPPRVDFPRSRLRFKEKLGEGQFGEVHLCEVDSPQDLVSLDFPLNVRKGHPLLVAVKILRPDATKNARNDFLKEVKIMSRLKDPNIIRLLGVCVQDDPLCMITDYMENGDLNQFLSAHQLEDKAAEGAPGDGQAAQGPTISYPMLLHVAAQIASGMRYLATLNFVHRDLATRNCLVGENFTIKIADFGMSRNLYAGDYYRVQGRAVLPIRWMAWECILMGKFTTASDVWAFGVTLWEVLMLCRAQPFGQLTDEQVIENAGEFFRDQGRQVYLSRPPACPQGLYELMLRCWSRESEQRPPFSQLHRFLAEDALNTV
A further experiment has as its target Ephrin type-A receptor 7 (Homo sapiens, UniProt Q15375).
Experiment [10] has as its target T3, Phenylalanine--tRNA ligase beta subunit (Homo sapiens, UniProt Q9NSD9).
T3 sequence (Q9NSD9 whole entry): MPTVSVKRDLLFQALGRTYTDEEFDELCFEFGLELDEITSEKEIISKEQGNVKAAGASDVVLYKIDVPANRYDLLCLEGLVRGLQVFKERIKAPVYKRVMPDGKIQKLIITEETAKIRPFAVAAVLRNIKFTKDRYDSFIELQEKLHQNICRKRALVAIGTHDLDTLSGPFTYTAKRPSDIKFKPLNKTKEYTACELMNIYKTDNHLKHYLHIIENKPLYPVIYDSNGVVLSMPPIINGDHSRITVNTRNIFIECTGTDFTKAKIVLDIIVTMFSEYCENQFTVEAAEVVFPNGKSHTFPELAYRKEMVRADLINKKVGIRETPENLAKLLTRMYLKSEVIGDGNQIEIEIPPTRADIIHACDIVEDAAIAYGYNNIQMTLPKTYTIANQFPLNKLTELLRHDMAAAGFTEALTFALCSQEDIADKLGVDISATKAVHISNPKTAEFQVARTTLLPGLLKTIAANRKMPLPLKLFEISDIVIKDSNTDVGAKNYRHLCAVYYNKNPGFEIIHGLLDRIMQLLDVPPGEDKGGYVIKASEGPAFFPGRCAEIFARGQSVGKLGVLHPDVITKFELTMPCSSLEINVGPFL

Structures are written as SMILES. Counter-ions that a name gives are not always drawn. Active and inactive are the calls of the source. For most assays here, no stated cut-off is given here; in the data, actives have a measured Kd and inactives only a lower limit.

Sequence of Tyrosine-protein kinase HCK (P08631 whole entry, the tested form may be a part): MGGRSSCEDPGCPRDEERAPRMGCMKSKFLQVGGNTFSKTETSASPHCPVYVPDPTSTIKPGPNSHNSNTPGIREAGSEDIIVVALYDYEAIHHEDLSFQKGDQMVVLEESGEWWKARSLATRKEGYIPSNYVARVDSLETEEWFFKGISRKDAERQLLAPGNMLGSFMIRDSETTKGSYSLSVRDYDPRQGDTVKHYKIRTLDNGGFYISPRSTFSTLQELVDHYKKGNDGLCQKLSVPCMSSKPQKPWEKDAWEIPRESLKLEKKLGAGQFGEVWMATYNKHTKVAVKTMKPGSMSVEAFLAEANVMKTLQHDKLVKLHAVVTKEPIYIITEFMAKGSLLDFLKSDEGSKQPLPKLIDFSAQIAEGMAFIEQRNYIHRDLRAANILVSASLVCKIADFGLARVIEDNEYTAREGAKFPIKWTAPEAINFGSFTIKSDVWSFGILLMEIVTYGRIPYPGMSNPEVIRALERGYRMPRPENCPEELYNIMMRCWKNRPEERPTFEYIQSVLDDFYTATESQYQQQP
Sequence of Serine/threonine-protein kinase pim-1 (P11309 whole entry): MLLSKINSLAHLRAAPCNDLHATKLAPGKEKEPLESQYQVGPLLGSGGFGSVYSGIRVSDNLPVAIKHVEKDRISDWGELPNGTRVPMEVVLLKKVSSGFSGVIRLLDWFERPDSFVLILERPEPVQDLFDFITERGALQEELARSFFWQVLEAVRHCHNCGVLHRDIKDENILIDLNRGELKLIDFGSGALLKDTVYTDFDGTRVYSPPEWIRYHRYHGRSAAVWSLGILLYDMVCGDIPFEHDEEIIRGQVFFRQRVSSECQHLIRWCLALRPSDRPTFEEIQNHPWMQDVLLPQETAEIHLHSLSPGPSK
Sequence of Ephrin type-A receptor 7 (Q15375 whole entry): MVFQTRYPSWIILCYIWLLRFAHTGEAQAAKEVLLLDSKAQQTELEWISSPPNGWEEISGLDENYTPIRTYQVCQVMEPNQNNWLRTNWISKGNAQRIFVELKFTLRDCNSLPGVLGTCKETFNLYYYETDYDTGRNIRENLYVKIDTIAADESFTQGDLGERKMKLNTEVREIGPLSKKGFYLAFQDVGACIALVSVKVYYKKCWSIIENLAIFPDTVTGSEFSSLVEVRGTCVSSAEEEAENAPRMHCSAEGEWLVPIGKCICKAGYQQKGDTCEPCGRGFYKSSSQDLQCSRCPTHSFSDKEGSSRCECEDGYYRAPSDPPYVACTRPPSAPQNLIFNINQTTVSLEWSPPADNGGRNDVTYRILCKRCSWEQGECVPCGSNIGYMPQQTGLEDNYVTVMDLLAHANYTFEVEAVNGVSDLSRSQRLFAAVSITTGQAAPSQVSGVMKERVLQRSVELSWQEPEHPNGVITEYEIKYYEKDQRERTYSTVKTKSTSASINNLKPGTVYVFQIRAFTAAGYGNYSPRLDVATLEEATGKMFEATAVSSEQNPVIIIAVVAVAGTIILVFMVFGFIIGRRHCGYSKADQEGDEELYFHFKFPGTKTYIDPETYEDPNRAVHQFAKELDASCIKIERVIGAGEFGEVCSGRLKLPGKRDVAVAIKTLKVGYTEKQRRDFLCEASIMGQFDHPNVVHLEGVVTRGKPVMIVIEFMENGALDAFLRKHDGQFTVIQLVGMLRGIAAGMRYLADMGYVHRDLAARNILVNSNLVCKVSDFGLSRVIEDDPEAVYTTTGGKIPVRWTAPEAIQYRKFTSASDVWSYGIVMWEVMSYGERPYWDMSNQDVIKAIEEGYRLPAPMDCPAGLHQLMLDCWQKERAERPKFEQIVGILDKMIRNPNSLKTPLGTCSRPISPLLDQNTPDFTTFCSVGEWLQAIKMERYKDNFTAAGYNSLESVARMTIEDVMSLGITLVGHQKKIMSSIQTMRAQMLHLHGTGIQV
Sequence of Calcium/calmodulin-dependent protein kinase kinase 2 (Q96RR4 whole entry): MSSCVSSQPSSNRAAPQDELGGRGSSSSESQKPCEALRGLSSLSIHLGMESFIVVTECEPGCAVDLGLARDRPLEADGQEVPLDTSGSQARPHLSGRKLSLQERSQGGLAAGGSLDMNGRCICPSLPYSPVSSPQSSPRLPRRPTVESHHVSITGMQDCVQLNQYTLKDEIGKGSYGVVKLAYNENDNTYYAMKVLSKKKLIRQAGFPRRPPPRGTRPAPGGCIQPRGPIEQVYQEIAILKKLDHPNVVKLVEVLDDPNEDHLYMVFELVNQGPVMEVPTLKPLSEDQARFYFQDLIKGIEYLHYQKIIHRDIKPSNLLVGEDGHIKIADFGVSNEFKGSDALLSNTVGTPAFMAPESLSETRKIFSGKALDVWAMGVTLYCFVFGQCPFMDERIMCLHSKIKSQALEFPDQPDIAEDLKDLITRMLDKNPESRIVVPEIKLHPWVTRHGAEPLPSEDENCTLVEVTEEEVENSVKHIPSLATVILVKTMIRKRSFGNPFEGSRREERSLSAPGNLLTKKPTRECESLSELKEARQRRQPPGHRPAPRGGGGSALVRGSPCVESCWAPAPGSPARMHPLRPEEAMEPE

`Cc1csc(-c2nnc(Nc3ccc(Oc4ncccc4-c4ccnc(N)n4)cc3)c3ccccc23)c1` [AMG-900]: the Kd (in experiment [1]; on Activin receptor type-2B; in experiment [2]; in experiment [3]; in [4]; in experiment [5]) was > 30 µM (inactive) throughout. For the same compound, the Kd (in general, a measure of binding affinity in units of concentration) in experiment [6] was > 30 µM (inactive); in experiment [7] it was 2.15 µM (active); in experiment [8], > 30 µM (inactive); in experiment [9], 0.11 µM (active); on Ephrin type-A receptor 7, > 30 µM (inactive); in [10], > 30 µM (inactive).

With `C=CC(=O)Nc1cc2c(Nc3ccc(F)c(Cl)c3)ncnc2cc1C#CC(C)(C)N1CCN(C)CC1` [AV-412 FREE BASE], the Kd (in experiment [1]; at Activin receptor type-2B; in experiment [2]; in [3]; in experiment [4]; in experiment [5]) was > 30 µM (inactive) throughout. The Kd (in experiment [6]; in experiment [7]; in experiment [8]; in [9]; at Ephrin type-A receptor 7; in [10]) was > 30 µM (inactive) each time.

Consider `NC(=O)Nc1cc(-c2cccc(F)c2)sc1C(=O)N[C@H]1CCCNC1` [AZD-7762], for which the Kd in experiment [1] was 0.475 µM (active); at Activin receptor type-2B it was 0.253 µM (active); in experiment [2], > 30 µM (inactive); in [3] it was > 30 µM (inactive); in [4] it was > 30 µM (inactive); in experiment [5], > 30 µM (inactive). In addition, the Kd in experiment [6] is > 30 µM (inactive); in experiment [7] it was > 30 µM (inactive); in experiment [8] it was 0.103 µM (active); in experiment [9] it was > 30 µM (inactive); at Ephrin type-A receptor 7 it was > 30 µM (inactive); in experiment [10], > 30 µM (inactive).

On to `Cn1cnc2c(F)c(Nc3ccc(Br)cc3F)c(C(=O)NOCCO)cc21` [BINIMETINIB], for which the Kd (in experiment [1]; at Activin receptor type-2B; in experiment [2]; in [3]; in [4]; in [5]) was > 30 µM (inactive) each time. Besides, the Kd (in experiment [6]; in [7]; in experiment [8]; in [9]; on Ephrin type-A receptor 7; in [10]) was > 30 µM (inactive) each time.

As for `CCn1c(C(=O)N(C2CC2)C2CC2)cc2c3c(ncn3C)c(Nc3cc(C)n(C)n3)nc21` [BMS-911543], the Kd (in [1]; on Activin receptor type-2B; in experiment [2]; in experiment [3]; in experiment [4]; in experiment [5]) was > 30 µM (inactive) each time. For the same compound, the Kd (in experiment [6]; in experiment [7]; in [8]; in experiment [9]; at Ephrin type-A receptor 7; in experiment [10]) was > 30 µM (inactive) each time.

For `COc1cc2ncnc(Oc3cccc(NC(=O)Nc4cc(C(C)(C)C(F)(F)F)on4)c3)c2cc1OC` [CEP-32496], the Kd (in experiment [1]; at Activin receptor type-2B; in [2]; in [3]; in [4]; in [5]) was > 30 µM (inactive) throughout. The Kd in experiment [6] was > 30 µM (inactive); in [7], > 30 µM (inactive); in [8] it was > 30 µM (inactive); in experiment [9], 0.124 µM (active); at Ephrin type-A receptor 7 it was > 30 µM (inactive); in experiment [10], > 30 µM (inactive).

For the compound `Cc1cc(Nc2ncc(Cl)c(Nc3ccccc3S(=O)(=O)C(C)C)n2)c(OC(C)C)cc1C1CCNCC1` [CERITINIB], the Kd in experiment [1] was > 30 µM (inactive); on Activin receptor type-2B it was > 30 µM (inactive); in experiment [2], > 30 µM (inactive); in experiment [3] it was > 30 µM (inactive); in experiment [4], > 30 µM (inactive); in experiment [5], 5.43 µM (active). Besides, the Kd (in experiment [6]; in experiment [7]; in experiment [8]; in experiment [9]; on Ephrin type-A receptor 7; in experiment [10]) was > 30 µM (inactive) each time.

Consider `COc1c(OCCCN2CCOCC2)ccc2c1N=C(NC(=O)c1cnc(N)nc1)N1CCN=C21` [COPANLISIB], for which the Kd (in [1]; on Activin receptor type-2B; in experiment [2]; in [3]; in [4]; in experiment [5]) was > 30 µM (inactive) throughout. The Kd (in experiment [6]; in experiment [7]; in experiment [8]; in experiment [9]; at Ephrin type-A receptor 7; in experiment [10]) was > 30 µM (inactive) each time.

In the case of `COCC(=O)NC/C=C/c1ccc2ncnc(Nc3ccc(Oc4ccc(C)nc4)c(C)c3)c2c1` [CP-724714], the Kd (in experiment [1]; on Activin receptor type-2B; in experiment [2]; in experiment [3]; in experiment [4]; in experiment [5]) was > 30 µM (inactive) throughout. In addition, the Kd (in experiment [6]; in [7]; in experiment [8]; in experiment [9]; at Ephrin type-A receptor 7; in [10]) was > 30 µM (inactive) in each case.

Regarding `CCS(=O)(=O)N1CCN(c2ccc(Nc3ncc(C(N)=O)c(NC4CC4)n3)cc2)CC1` [Cerdulatinib Hydrochloride], the Kd in [1] is > 30 µM (inactive); on Activin receptor type-2B, > 30 µM (inactive); in experiment [2], > 30 µM (inactive); in experiment [3] it was 0.078 µM (active); in experiment [4], > 30 µM (inactive); in experiment [5] it was > 30 µM (inactive). The Kd (in experiment [6]; in [7]; in [8]; in experiment [9]; on Ephrin type-A receptor 7; in experiment [10]) was > 30 µM (inactive) throughout.
